Each compound was assayed against T1, Human PPARδ LBD (Homo sapiens, UniProt Q03181) (assay: PPARδ activity screen (GAL4-PPARδ LBD luciferase transactivation in CV-1 cells)). Settings: EC50 nM, Table 1; CV-1 cells, GAL4-PPARδ LBD luciferase reporter, compound 24 h.
T1 construct: (PPARδ amino acid 128 to C-terminus); expressed in transfected cells; host or cells: CV-1 cells
T1 sequence (Q03181 128-441 limits assumed): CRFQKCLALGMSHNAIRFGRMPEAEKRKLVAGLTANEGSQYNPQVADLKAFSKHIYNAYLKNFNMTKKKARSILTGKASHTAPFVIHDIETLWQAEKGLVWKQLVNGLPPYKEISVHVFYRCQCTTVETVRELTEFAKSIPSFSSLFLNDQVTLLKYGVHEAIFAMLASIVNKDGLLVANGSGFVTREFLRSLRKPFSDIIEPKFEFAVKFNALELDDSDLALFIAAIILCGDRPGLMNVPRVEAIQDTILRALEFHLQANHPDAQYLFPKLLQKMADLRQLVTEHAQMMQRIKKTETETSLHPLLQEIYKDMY
Assay type: cell-based
Description: Cell Culture and Transfection: CV-1 cells were grown in DMEM+10% charcoal stripped FCS. Cells were seeded into 384-well plates the day before transfection to give a confluency of 50-80% at transfection. A total of […] containing 0.64 micrograms pCMX-PPARDelta LBD, 0.1 micrograms pCMXβGal, 0.08 micrograms pGLMH2004 reporter and 0.02 micrograms pCMX empty vector was transfected per well using FuGene transfection reagent according to the manufacturer's instructions (Roche).
Plasmids: Human PPARδ was used to PCR amplify the PPARδ LBD. […] Ensuing fusions were verified by sequencing.
Compounds: All compounds were dissolved in DMSO and diluted 1:1000 upon addition to the cells. Compounds were tested in quadruple in concentrations ranging from 0.001 to 100 μM. […] Each compound was tested in at least two separate experiments.
Luciferase assay: Medium including test compound was aspirated and washed with PBS. 50 μl PBS including 1 mM Mg++ and Ca++ were then added to each well. The luciferase assay was performed using the LucLite kit according to the manufacturer's instructions (Packard Instruments). Light emission was quantified by counting on a Perkin Elmer Envision reader. […] Beta-galactosidase assays were performed in the microwell plates using a kit from Promega and read in a Perkin Elmer Envision reader. The beta-galactosidase data were used to normalize (transfection efficiency, cell growth etc.) the luciferase data.
Statistical Methods: The activity of a compound is calculated as fold induction compared to an untreated sample. […] EC50 values were calculated via non-linear regression using GraphPad PRISM (GraphPad Software, San Diego, Calif.).
`CC(C)N(Cc1ccccc1OCCCCCC(=O)O)C(=O)c1ccc(-c2ccccc2)cc1` [compound 1] was tested, and the EC50 was 42 nM.
For `O=C(O)CCCCCOc1ccccc1CN(C(=O)c1ccc(-c2ccccc2)cc1)C1CC1` [compound 8], the EC50 was 115 nM.
Compound `O=C(O)CCCCCOc1ccccc1CN(C(=O)c1ccc(-c2cccs2)cc1)C1CC1` [compound 14] has an EC50 of 1800 nM.
`CCC(C)N(Cc1ccccc1OCCCCCC(=O)O)C(=O)c1ccc(Br)cc1` (stereo not shown) [compound 32] showed an EC50 of 611 nM.
`CCC(C)N(Cc1ccccc1OCCCCCC(=O)O)C(=O)c1ccc(-c2ccccc2)cc1` (stereo not shown) [compound 33] was tested, and the EC50 was 954 nM.
`CCC(C)N(Cc1ccccc1OCCCCCC(=O)O)C(=O)c1ccc(-c2cccnc2)cc1` (stereo not shown) [compound 34] showed an EC50 of 5140 nM.
Work on `CCC(C)N(Cc1ccccc1OCCCCCC(=O)O)C(=O)c1ccc(-c2ccncc2)cc1` (stereo not shown) [compound 35] yielded an EC50 of 6400 nM.
Work on `CCC(C)N(Cc1ccccc1OCCCCCC(=O)O)C(=O)c1ccc(-c2cn[nH]c2)cc1` (stereo not shown) [compound 36] yielded an EC50 of 15400 nM.
Work on `CCC(C)N(Cc1ccccc1OCCCCCC(=O)O)C(=O)c1ccc(-c2ccoc2)cc1` (stereo not shown) [compound 38] yielded an EC50 of 290 nM.
In the case of `CCC(C)N(Cc1ccccc1OCCCCCC(=O)O)C(=O)c1ccc(-c2cccs2)cc1` (stereo not shown) [compound 39], the EC50 is reported as 2100 nM.
`CCC(C)N(Cc1ccccc1OCCCCCC(=O)O)C(=O)c1ccc(-c2ccsc2)cc1` (stereo not shown) [compound 40] gave an EC50 of 179 nM.
For `CC(C)N(Cc1ccccc1OCCCCCC(=O)O)C(=O)c1ccc(-c2cccnc2)cc1` [compound 58], the EC50 was 1240 nM.
`O=C(O)CCCCCOc1ccccc1CN(C(=O)c1ccc(-c2ccccc2)cc1)C1CCCC1` [compound 65] gave an EC50 of 405 nM.
For `Cc1ccccc1-c1ccc(C(=O)N(Cc2ccccc2OCCCCCC(=O)O)C2CC2)cc1` [compound 75], the EC50 was 1190 nM.
`Cc1cccc(-c2ccc(C(=O)N(Cc3ccccc3OCCCCCC(=O)O)C3CC3)cc2)c1` [compound 76] showed an EC50 of 318 nM.
Compound `Cc1ccc(-c2ccc(C(=O)N(Cc3ccccc3OCCCCCC(=O)O)C3CC3)cc2)cc1` [compound 77] has an EC50 of 372 nM.
`COc1ccccc1-c1ccc(C(=O)N(Cc2ccccc2OCCCCCC(=O)O)C2CC2)cc1` [compound 78] gave an EC50 of 1870 nM.
`COc1cccc(-c2ccc(C(=O)N(Cc3ccccc3OCCCCCC(=O)O)C3CC3)cc2)c1` [compound 79] was tested, and the EC50 was 301 nM.
In the case of `COc1ccc(-c2ccc(C(=O)N(Cc3ccccc3OCCCCCC(=O)O)C3CC3)cc2)cc1` [compound 80], the EC50 is reported as 439 nM.
For `O=C(O)CCCCCOc1ccccc1CN(C(=O)c1ccc(-c2ccccc2F)cc1)C1CC1` [compound 81], the EC50 was 597 nM.
`O=C(O)CCCCCOc1ccccc1CN(C(=O)c1ccc(-c2cccc(F)c2)cc1)C1CC1` [compound 82] gave an EC50 of 150 nM.
In the case of `O=C(O)CCCCCOc1ccccc1CN(C(=O)c1ccc(-c2ccc(F)cc2)cc1)C1CC1` [compound 83], the EC50 is reported as 364 nM.
Work on `CCc1ccccc1-c1ccc(C(=O)N(Cc2ccccc2OCCCCCC(=O)O)C2CC2)cc1` [compound 84] yielded an EC50 of 2500 nM.
In the case of `Cc1cccc(-c2ccc(C(=O)N(Cc3ccccc3OCCCCCC(=O)O)C3CC3)cc2)c1C` [compound 86], the EC50 is reported as 1300 nM.
`Cc1ccc(C)c(-c2ccc(C(=O)N(Cc3ccccc3OCCCCCC(=O)O)C3CC3)cc2)c1` [compound 87] was tested, and the EC50 was 1150 nM.
In the case of `Cc1cc(C)cc(-c2ccc(C(=O)N(Cc3ccccc3OCCCCCC(=O)O)C3CC3)cc2)c1` [compound 89], the EC50 is reported as 1760 nM.
Compound `O=C(O)CCCCCOc1ccccc1CN(C(=O)c1ccc(-c2ccccc2C(F)(F)F)cc1)C1CC1` [compound 90] has an EC50 of 1300 nM.
`O=C(O)CCCCCOc1ccccc1CN(C(=O)c1ccc(-c2cccc(C(F)(F)F)c2)cc1)C1CC1` [compound 91] was tested, and the EC50 was 1150 nM.
In the case of `O=C(O)CCCCCOc1ccccc1CN(C(=O)c1ccc(-c2ccc(C(F)(F)F)cc2)cc1)C1CC1` [compound 92], the EC50 is reported as 1760 nM.
In the case of `CCCc1ccc(-c2ccc(C(=O)N(Cc3ccccc3OCCCCCC(=O)O)C3CC3)cc2)cc1` [compound 93], the EC50 is reported as 1340 nM.

Same assay, conditions: Table 1; CV-1 cells, GAL4-PPARδ LBD luciferase reporter, compound 24 h; read-out: EC50
In the case of `O=C(O)CCCCCOc1ccccc1CN(C(=O)c1ccc(-c2cccnc2)cc1)C1CC1` [compound 9], the EC50 is reported as 1960 nM.
`O=C(O)CCCCCOc1ccccc1CN(C(=O)c1ccc(-c2cn[nH]c2)cc1)C1CC1` [compound 11] gave an EC50 of 2120 nM.
`O=C(O)CCCCCOc1ccccc1CN(C(=O)c1ccc(-c2ccoc2)cc1)C1CC1` [compound 13] showed an EC50 of 215 nM.
Work on `O=C(O)CCCCCOc1ccccc1CN(C(=O)c1ccc(-c2ccsc2)cc1)C1CC1` [compound 15] yielded an EC50 of 58.4 nM.
Compound `CC(C)N(Cc1ccccc1OCCCCCC(=O)O)C(=O)c1ccc(-c2ccncc2)cc1` [compound 59] has an EC50 of 2860 nM.
`CC(C)N(Cc1ccccc1OCCCCCC(=O)O)C(=O)c1ccc(-c2cn[nH]c2)cc1` [compound 60] showed an EC50 of 710 nM.
Compound `O=C(O)CCCCCOc1ccccc1CN(C(=O)c1ccc(-c2cccnc2)cc1)C1CCCC1` [compound 66] has an EC50 of 786 nM.
`O=C(O)CCCCCOc1ccccc1CN(C(=O)c1ccc(-c2ccncc2)cc1)C1CCCC1` [compound 67] was tested, and the EC50 was 1490 nM.
In the case of `O=C(O)CCCCCOc1ccccc1CN(C(=O)c1ccc(-c2cn[nH]c2)cc1)C1CCCC1` [compound 68], the EC50 is reported as 605 nM.
In the case of `O=C(O)CCCCCOc1ccccc1CN(C(=O)c1ccc(-c2ccco2)cc1)C1CCCC1` [compound 69], the EC50 is reported as 51.4 nM.
`O=C(O)CCCCCOc1ccccc1CN(C(=O)c1ccc(-c2ccoc2)cc1)C1CCCC1` [compound 70] showed an EC50 of 127 nM.
Compound `O=C(O)CCCCCOc1ccccc1CN(C(=O)c1ccc(-c2cccs2)cc1)C1CCCC1` [compound 71] has an EC50 of 753 nM.
For `O=C(O)CCCCCOc1ccccc1CN(C(=O)c1ccc(-c2ccsc2)cc1)C1CCCC1` [compound 72], the EC50 was 29.3 nM.
